# Organism: Rattus norvegicus
# Assay: Open TG-GATES - Regimen: Single
# Format: toxicity, organism-based, Sprague-Dawley
# Set-up: regimen Single, gender Male, age 6 weeks
# Conditions: in vivo, iv, 0 mg/kg, route intravenous injection, dose level Control; for APTT / Bas / Eos / Fbg / Hb / Ht / Lym / MCH / MCHC / MCV / Mono / Neu / PT / Plat / RBC / Ret / WBC: tissue Blood; for KIDNEY_L / KIDNEY_R / KIDNEY_TOTAL: tissue Kidney; for LIVER: tissue Liver; for A/G / ALP / ALT / AST / BUN / CRE / Ca / Cl / DBIL / GLC / IP / K / LDH / Na / PL / RALB / TBIL / TC / TG / TP / gamma-GTP: tissue Plasma
structure (smiles),measurement,setting,value
CN(C)c1ncnc2c1ncn2[C@@H]1O[C@H](CO)[C@@H](N)[C@H]1O [PUROMYCIN AMINONUCLEOSIDE],TERMINAL_BW,9 h,212.6 g
same,APTT,9 h,21.9 s
same,Bas,9 h,0%
same,Eos,9 h,1%
same,Fbg,9 h,314.6 mg/dL
same,Hb,9 h,12.9 g/dL
same,Ht,9 h,37.9%
same,Lym,9 h,76.2%
same,MCH,9 h,20.7 pg
same,MCHC,9 h,33.9%
same,MCV,9 h,61 fL
same,Mono,9 h,2.8%
same,Neu,9 h,19.2%
same,PT,9 h,16.2 s
same,Plat,9 h,126.3 x10_4/uL
same,RBC,9 h,621.4 x10_4/ul
same,Ret,9 h,7.1%
same,WBC,9 h,94.1 x10_2/uL
same,KIDNEY_L,9 h,1 g
same,KIDNEY_R,9 h,1 g
same,KIDNEY_TOTAL,9 h,1.9 g
same,LIVER,9 h,9.1 g
same,A/G,9 h,1.2
same,ALP,9 h,1259.6 IU/L
same,ALT,9 h,38.2 IU/L
same,AST,9 h,73.2 IU/L
same,BUN,9 h,11.6 mg/dL
same,CRE,9 h,0.1 mg/dL
same,Ca,9 h,11.1 mg/dL
same,Cl,9 h,104.4 meq/L
same,DBIL,9 h,0 mg/dL
same,GLC,9 h,191.6 mg/dL
same,IP,9 h,9.4 mg/dL
same,K,9 h,4.3 meq/L
same,LDH,9 h,149.4 IU/L
same,Na,9 h,140 meq/L
same,PL,9 h,136.6 mg/dL
same,RALB,9 h,3 g/dL
same,TBIL,9 h,0.028 mg/dL
same,TC,9 h,73.8 mg/dL
same,TG,9 h,71.2 mg/dL
same,TP,9 h,5.5 g/dL
same,gamma-GTP,9 h,1.4 IU/L
same,TERMINAL_BW,24 h,221.6 g
same,APTT,24 h,21.5 s
same,Bas,24 h,0%
same,Eos,24 h,0.8%
same,Fbg,24 h,281.4 mg/dL
same,Hb,24 h,12.6 g/dL
same,Ht,24 h,37.2%
same,Lym,24 h,78.8%
same,MCH,24 h,21.1 pg
same,MCHC,24 h,34%
same,MCV,24 h,62.1 fL
same,Mono,24 h,2.8%
same,Neu,24 h,17%
same,PT,24 h,15.9 s
same,Plat,24 h,132.3 x10_4/uL
same,RBC,24 h,597.8 x10_4/ul
same,Ret,24 h,7%
same,WBC,24 h,96.2 x10_2/uL
same,KIDNEY_L,24 h,0.9 g
same,KIDNEY_R,24 h,1 g
same,KIDNEY_TOTAL,24 h,1.9 g
same,LIVER,24 h,10.4 g
same,A/G,24 h,1.3
same,ALP,24 h,1657.8 IU/L
same,ALT,24 h,47.4 IU/L
same,AST,24 h,78.2 IU/L
same,BUN,24 h,19.2 mg/dL
same,CRE,24 h,0.2 mg/dL
same,Ca,24 h,11 mg/dL
same,Cl,24 h,105 meq/L
same,DBIL,24 h,0 mg/dL
same,GLC,24 h,186.6 mg/dL
same,IP,24 h,7 mg/dL
same,K,24 h,4.7 meq/L
same,LDH,24 h,234.6 IU/L
same,Na,24 h,140.4 meq/L
same,PL,24 h,136.4 mg/dL
same,RALB,24 h,3 g/dL
same,TBIL,24 h,0.012 mg/dL
same,TC,24 h,68.4 mg/dL
same,TG,24 h,88.8 mg/dL
same,TP,24 h,5.3 g/dL
same,gamma-GTP,24 h,1.2 IU/L
